Laboratory results as given in the NIST ThermoML archive (doi:10.1021/acs.jced.5b00948).

Legend:
[1] = mn = molality of the nth substance listed, in mol/kg; details: 298.15 K, 100 kPa, Liquid, Alternating current cell with electrodes
[2] = refractive index (Na D-line) (dimensionless); details: 298.15 K; 100 kPa; Liquid; Standard Abbe refractometry
[3] = wn = mass fraction of the nth substance listed; details: 298.15 K, 100 kPa, Liquid, Vibrating tube method
[4] = refractive index (Na D-line) (dimensionless); wn = mass fraction of the nth substance listed; details: 298.15 K, 100 kPa, Liquid, Standard Abbe refractometry

CCCCCCCC[n+]1ccn(C)c1.[Cl-] [1-methyl-3-octylimidazolium chloride] + O
[1]
Details | electrical conductivity [S/m]
m1 = 0.03 | 0.245
m1 = 0.06 | 0.425
m1 = 0.124 | 0.712
m1 = 0.18 | 0.901
m1 = 0.242 | 1.03
m1 = 0.284 | 1.1
m1 = 0.319 | 1.123
m1 = 0.352 | 1.18
m1 = 0.389 | 1.204
m1 = 0.421 | 1.228
m1 = 0.48 | 1.26
m1 = 0.51 | 1.28
m1 = 0.541 | 1.301

O [water]
Details | refractive index
[2] | 1.3325

CCCCn1cc[n+](C)c1.N[C@@H](CCC(=O)O)C(=O)[O-] [1-butyl-3-methylimidazolium (S)-2-amino-4-carboxybutanoate] + O
Details | electrical conductivity [S/m] | mass density [kg/m3] | refractive index
[1], m1 = 0.061 | 0.277 | – | –
[1], m1 = 0.101 | 0.364 | – | –
[1], m1 = 0.142 | 0.466 | – | –
[1], m1 = 0.196 | 0.577 | – | –
[1], m1 = 0.253 | 0.676 | – | –
[1], m1 = 0.361 | 0.869 | – | –
[1], m1 = 0.439 | 1.01 | – | –
[1], m1 = 0.541 | 1.13 | – | –
[1], m1 = 0.628 | 1.205 | – | –
[1], m1 = 0.715 | 1.27 | – | –
[1], m1 = 0.848 | 1.37 | – | –
[1], m1 = 0.963 | 1.431 | – | –
[3], w1 = 0.111 | – | 1022.7 | –
[3], w1 = 0.183 | – | 1038.8 | –
[3], w1 = 0.273 | – | 1058.6 | –
[3], w1 = 0.353 | – | 1075.4 | –
[3], w1 = 0.42 | – | 1091 | –
[3], w1 = 0.491 | – | 1105.2 | –
[3], w1 = 0.561 | – | 1122.2 | –
[3], w1 = 0.628 | – | 1136.6 | –
[3], w1 = 0.717 | – | 1153.7 | –
[3], w1 = 0.773 | – | 1167.1 | –
[3], w1 = 0.836 | – | 1181.6 | –
[3], w1 = 0.863 | – | 1185.8 | –
[4], w1 = 0.05 | – | – | 1.3448
[4], w1 = 0.103 | – | – | 1.3584
[4], w1 = 0.152 | – | – | 1.3724
[4], w1 = 0.2 | – | – | 1.3838
[4], w1 = 0.299 | – | – | 1.4025
[4], w1 = 0.377 | – | – | 1.4179
[4], w1 = 0.492 | – | – | 1.4473
[4], w1 = 0.576 | – | – | 1.4684
